Laboratory results reported in ChEMBL document CHEMBL5649169 (ChemMedChem, 2018).

What was measured:
[1] = target: Aminoacyl tRNA synthase complex-interacting multifunctional protein 1 (Homo sapiens) (UniProt Q12904)
[2] = target: RAC-gamma serine/threonine-protein kinase (Homo sapiens) (UniProt Q9Y243)
[3] = target: AP-3 complex subunit beta-1 (Homo sapiens) (UniProt O00203)
[4] = target: Rho guanine nucleotide exchange factor 2 (Homo sapiens) (UniProt Q92974)
[5] = target: Bifunctional purine biosynthesis protein ATIC (Homo sapiens) (UniProt P31939)
[6] = target: ATP synthase F(0) complex subunit f, mitochondrial (Homo sapiens) (UniProt P56134)
Sequence of ATP synthase F(0) complex subunit f, mitochondrial (Homo sapiens) (P56134 whole entry, one chain of several): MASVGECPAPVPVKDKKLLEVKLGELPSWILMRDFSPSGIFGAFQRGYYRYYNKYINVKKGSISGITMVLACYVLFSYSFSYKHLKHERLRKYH

[7] = target: Ataxin-2-like protein (Homo sapiens) (UniProt Q8WWM7)
[8] = target: Cullin-associated NEDD8-dissociated protein 1 (Homo sapiens) (UniProt Q86VP6)
[9] = target: F-actin-capping protein subunit beta (Homo sapiens) (UniProt P47756)
[10] = target: Serine/threonine-protein kinase MRCK beta (Homo sapiens) (UniProt Q9Y5S2)
[11] = target: Exosome complex component 10 (Homo sapiens) (UniProt Q01780)
[12] = target: Ubiquitin-like FUBI-ribosomal protein eS30 fusion protein (Homo sapiens) (UniProt P62861)
[13] = target: Peptidyl-prolyl cis-trans isomerase FKBP4 (Homo sapiens) (UniProt Q02790)
Sequence of Peptidyl-prolyl cis-trans isomerase FKBP4 (Homo sapiens) (Q02790 whole entry): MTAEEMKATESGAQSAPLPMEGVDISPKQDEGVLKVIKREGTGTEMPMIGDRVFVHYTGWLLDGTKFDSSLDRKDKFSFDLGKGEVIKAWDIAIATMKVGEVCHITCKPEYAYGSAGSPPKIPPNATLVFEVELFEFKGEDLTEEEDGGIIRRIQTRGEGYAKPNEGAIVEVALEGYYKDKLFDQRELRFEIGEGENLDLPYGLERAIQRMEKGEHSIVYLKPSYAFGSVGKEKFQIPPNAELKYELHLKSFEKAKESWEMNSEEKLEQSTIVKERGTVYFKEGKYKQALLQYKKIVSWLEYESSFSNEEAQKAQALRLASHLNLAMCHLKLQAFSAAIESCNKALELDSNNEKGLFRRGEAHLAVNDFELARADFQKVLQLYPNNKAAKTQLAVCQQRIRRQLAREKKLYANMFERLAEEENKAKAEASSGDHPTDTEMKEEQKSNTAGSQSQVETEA

Filamin-A (Homo sapiens) = Filamin-A (Homo sapiens) (UniProt P21333)
[14] = target: Cyclin-G-associated kinase (Homo sapiens) (UniProt O14976)
Sequence of Cyclin-G-associated kinase (Homo sapiens) (O14976 whole entry): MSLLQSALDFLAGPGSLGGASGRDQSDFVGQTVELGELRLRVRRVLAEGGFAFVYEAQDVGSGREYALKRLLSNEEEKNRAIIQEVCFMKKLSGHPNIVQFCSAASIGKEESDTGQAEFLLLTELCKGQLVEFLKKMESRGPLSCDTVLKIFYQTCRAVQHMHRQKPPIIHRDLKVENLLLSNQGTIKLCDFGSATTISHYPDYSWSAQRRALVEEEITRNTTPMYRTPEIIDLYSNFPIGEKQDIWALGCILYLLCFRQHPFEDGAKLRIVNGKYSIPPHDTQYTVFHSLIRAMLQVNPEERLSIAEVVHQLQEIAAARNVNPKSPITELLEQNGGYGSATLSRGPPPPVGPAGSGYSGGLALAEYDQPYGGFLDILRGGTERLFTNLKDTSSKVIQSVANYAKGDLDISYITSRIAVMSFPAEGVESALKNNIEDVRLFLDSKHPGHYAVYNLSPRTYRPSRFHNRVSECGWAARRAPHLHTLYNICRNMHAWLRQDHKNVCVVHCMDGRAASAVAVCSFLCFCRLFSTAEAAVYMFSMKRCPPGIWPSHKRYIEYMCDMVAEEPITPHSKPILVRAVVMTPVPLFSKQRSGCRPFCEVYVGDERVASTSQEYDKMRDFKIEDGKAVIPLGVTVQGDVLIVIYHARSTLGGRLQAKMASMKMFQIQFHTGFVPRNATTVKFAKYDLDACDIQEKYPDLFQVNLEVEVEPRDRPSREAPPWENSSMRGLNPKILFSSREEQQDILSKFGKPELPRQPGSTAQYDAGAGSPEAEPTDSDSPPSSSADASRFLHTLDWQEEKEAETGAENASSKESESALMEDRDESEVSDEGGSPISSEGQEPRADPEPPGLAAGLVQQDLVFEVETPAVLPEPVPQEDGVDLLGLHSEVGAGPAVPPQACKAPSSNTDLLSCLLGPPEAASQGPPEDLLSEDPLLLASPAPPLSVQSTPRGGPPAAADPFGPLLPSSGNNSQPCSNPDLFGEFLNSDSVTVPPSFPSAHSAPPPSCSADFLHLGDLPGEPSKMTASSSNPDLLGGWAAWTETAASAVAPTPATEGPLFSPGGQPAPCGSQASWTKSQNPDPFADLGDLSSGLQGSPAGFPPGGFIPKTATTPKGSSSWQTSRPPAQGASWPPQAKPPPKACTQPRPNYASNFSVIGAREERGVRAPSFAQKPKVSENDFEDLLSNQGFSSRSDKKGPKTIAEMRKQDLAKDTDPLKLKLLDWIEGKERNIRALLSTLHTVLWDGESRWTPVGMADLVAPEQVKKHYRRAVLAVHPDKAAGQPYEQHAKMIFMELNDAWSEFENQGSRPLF

[15] = target: Heterogeneous nuclear ribonucleoprotein A/B (Homo sapiens) (UniProt Q99729)
[16] = target: Heterogeneous nuclear ribonucleoprotein U-like protein 2 (Homo sapiens) (UniProt Q1KMD3)
[17] = target: 60 kDa heat shock protein, mitochondrial (Homo sapiens) (UniProt P10809)
Sequence of 60 kDa heat shock protein, mitochondrial (Homo sapiens) (P10809 whole entry): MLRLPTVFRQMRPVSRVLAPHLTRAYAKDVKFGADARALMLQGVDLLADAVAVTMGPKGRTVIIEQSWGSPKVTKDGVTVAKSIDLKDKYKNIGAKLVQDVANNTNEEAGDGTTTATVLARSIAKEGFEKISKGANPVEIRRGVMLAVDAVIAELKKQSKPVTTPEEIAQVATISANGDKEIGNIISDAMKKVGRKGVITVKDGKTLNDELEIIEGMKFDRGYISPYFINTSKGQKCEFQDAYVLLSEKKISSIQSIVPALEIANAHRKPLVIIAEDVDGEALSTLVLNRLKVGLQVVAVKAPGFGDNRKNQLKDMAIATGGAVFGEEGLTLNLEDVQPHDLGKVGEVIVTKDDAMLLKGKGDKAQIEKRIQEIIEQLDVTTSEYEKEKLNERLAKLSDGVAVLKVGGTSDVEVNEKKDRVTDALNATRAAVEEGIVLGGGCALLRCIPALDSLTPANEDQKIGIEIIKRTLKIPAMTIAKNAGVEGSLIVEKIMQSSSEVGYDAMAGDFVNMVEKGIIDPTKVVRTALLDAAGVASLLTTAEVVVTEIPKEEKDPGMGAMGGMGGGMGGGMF

[18] = target: MICOS complex subunit MIC60 (Homo sapiens) (UniProt Q16891)
[19] = target: Interleukin-1 receptor-associated kinase 4 (Homo sapiens) (UniProt Q9NWZ3)
[20] = target: LIM domain kinase 2 (Homo sapiens) (UniProt P53671)
Sequence of LIM domain kinase 2 (Homo sapiens) (P53671 whole entry, looked up, the tested form may be a part): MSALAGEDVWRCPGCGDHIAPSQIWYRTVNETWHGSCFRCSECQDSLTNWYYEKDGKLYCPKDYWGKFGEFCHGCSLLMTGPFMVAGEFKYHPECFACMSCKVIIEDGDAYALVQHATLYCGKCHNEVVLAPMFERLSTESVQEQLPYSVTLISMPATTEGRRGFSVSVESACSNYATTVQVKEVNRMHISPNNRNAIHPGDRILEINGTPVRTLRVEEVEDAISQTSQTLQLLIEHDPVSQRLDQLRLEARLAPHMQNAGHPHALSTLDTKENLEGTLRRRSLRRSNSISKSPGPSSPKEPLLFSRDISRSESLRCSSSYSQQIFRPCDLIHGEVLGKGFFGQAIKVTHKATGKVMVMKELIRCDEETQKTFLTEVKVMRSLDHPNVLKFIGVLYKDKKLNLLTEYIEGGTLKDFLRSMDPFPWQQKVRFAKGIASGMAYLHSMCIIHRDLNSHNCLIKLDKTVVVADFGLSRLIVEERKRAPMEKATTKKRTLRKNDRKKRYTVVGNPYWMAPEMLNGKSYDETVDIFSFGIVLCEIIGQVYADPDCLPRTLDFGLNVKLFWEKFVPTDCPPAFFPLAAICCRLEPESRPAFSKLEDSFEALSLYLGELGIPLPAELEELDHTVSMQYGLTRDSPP

[21] = target: Mitogen-activated protein kinase kinase kinase kinase 3 (Homo sapiens) (UniProt Q8IVH8)
[22] = target: Mitogen-activated protein kinase 1 (Homo sapiens) (UniProt P28482)
[23] = target: Mitogen-activated protein kinase 9 (Homo sapiens) (UniProt P45984)
[24] = target: Large ribosomal subunit protein bL12m (Homo sapiens) (UniProt P52815)
[25] = target: ORM1-like protein 3 (Homo sapiens) (UniProt Q8N138)
[26] = target: 5'-AMP-activated protein kinase catalytic subunit alpha-1 (Homo sapiens) (UniProt Q13131)
Sequence of 5'-AMP-activated protein kinase catalytic subunit alpha-1 (Homo sapiens) (Q13131 whole entry, looked up): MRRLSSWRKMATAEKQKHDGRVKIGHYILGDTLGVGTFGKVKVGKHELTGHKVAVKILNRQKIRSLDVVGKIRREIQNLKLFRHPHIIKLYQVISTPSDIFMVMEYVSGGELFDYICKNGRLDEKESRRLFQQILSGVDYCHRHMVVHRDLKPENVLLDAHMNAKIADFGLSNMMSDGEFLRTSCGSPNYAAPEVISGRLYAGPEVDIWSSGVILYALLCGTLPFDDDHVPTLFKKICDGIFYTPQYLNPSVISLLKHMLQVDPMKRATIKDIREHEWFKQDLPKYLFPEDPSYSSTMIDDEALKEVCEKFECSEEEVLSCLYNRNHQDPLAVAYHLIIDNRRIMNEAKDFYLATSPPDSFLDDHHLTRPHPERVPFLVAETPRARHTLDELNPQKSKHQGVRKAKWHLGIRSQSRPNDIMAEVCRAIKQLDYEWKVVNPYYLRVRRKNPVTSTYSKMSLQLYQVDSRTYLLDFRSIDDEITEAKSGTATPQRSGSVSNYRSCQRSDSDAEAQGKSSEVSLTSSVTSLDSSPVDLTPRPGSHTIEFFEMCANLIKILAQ

[27] = target: cAMP-dependent protein kinase catalytic subunit gamma (Homo sapiens) (UniProt P22612)
Sequence of cAMP-dependent protein kinase catalytic subunit gamma (Homo sapiens) (P22612 2-351 limits assumed): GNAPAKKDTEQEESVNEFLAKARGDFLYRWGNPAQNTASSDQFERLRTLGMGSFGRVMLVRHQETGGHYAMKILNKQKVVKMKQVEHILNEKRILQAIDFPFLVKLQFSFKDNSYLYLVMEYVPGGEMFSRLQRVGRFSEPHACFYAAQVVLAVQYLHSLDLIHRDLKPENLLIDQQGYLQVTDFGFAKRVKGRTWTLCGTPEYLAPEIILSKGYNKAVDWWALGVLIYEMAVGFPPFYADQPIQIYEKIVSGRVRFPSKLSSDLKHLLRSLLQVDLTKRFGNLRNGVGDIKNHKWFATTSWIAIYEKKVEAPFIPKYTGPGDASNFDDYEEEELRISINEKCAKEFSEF

[28] = target: Proteasome Macropain subunit (Homo sapiens) (UniProt P49721)
Sequence of Proteasome Macropain subunit (Homo sapiens) (P49721 whole entry): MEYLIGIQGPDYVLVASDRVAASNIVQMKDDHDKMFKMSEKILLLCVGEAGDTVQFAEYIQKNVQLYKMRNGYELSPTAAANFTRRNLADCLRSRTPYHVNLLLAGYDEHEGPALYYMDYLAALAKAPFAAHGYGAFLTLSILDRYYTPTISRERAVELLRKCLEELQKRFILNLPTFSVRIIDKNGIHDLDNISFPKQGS

[29] = target: 26S proteasome regulatory subunit 6A (Homo sapiens) (UniProt P17980)
[30] = target: Large ribosomal subunit protein uL16 (Homo sapiens) (UniProt P27635)
[31] = target: Large ribosomal subunit protein eL27 (Homo sapiens) (UniProt P61353)
[32] = target: Large ribosomal subunit protein uL30 (Homo sapiens) (UniProt P18124)
[33] = target: Translocation protein SEC63 homolog (Homo sapiens) (UniProt Q9UGP8)
[34] = target: Tricarboxylate transport protein, mitochondrial (Homo sapiens) (UniProt P53007)
[35] = target: Large neutral amino acids transporter small subunit 1 (Homo sapiens) (UniProt Q01650)
[36] = target: STE20-like serine/threonine-protein kinase (Homo sapiens) (UniProt Q9H2G2)
[37] = target: Structural maintenance of chromosomes protein 3 (Homo sapiens) (UniProt Q9UQE7)
[38] = target: Serine/threonine-protein kinase TAO2 (Homo sapiens) (UniProt Q9UL54)
[39] = target: Telomere length regulation protein TEL2 homolog (Homo sapiens) (UniProt Q9Y4R8)
Sequence of Telomere length regulation protein TEL2 homolog (Homo sapiens) (Q9Y4R8 whole entry): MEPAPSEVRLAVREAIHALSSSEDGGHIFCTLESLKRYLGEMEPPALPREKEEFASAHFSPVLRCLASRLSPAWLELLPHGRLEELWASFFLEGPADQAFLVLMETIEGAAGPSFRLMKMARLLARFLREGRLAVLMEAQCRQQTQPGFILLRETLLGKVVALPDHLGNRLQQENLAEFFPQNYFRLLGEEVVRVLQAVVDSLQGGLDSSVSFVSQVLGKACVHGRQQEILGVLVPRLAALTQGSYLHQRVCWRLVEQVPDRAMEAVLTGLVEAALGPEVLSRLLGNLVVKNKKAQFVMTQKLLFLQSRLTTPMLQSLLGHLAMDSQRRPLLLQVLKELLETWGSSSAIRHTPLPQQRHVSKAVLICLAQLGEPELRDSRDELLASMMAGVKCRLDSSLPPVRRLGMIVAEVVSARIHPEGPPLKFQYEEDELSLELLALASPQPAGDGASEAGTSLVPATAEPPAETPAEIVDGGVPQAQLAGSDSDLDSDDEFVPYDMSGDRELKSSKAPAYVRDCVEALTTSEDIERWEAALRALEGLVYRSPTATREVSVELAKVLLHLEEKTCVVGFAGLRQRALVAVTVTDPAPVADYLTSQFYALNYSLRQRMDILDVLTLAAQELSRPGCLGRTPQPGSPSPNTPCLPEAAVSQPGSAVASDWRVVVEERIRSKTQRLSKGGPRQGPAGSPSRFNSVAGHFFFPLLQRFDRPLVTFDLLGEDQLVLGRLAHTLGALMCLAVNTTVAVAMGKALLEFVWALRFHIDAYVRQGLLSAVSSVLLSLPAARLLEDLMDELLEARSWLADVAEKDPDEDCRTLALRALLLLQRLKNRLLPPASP

[40] = target: TGF-beta receptor type-2 (Homo sapiens) (UniProt P37173)
[41] = target: Gamma-tubulin complex component 2 (Homo sapiens) (UniProt Q9BSJ2)
[42] = target: Protein VAC14 homolog (Homo sapiens) (UniProt Q08AM6)
[43] = target: Non-selective voltage-gated ion channel VDAC3 (Homo sapiens) (UniProt Q9Y277)
[44] = target: 14-3-3 protein epsilon (Homo sapiens) (UniProt P62258)
Also: assay method not described here.

Cc1ccc(C(=O)Nc2cccc(C(F)(F)F)c2)cc1Nc1nc(-c2cccnc2)nc2nn(C)cc12
ED50 [1]: 0.0574 µM
ED50 [2]: 3.14 µM
ED50 [3]: 0.049 µM
ED50 [4]: 0.0484 µM
ED50 [5]: 0.073 µM
ED50 [6]: 0.002 µM
ED50 [7]: 10.3 µM
ED50 [8]: 1.74 µM
ED50 [9]: 0.393 µM
ED50 [10]: 0.00892 µM
ED50 [11]: 348 µM
ED50 [12]: 12.4 µM
ED50 [13]: 0.546 µM
ED50 (Filamin-A (Homo sapiens)): 21.4 µM
ED50 [14]: 2.32 µM
ED50 [15]: 1.36 µM
ED50 [16]: 0.175 µM
ED50 [17]: 0.148 µM
ED50 [18]: 0.00743 µM
ED50 [19]: 647 µM
ED50 [20]: 1.38 µM
ED50 [21]: 28.7 µM
ED50 [22]: 0.0471 µM
ED50 [23]: 13.7 µM
ED50 [24]: 0.117 µM
ED50 [25]: 7.47 µM
ED50 (Homo sapiens): 17.5 µM
ED50 [26]: 0.0591 µM
ED50 [27]: 0.137 µM
ED50 [28]: 0.0536 µM
ED50 [29]: 0.00497 µM
ED50 [30]: 5.79 µM
ED50 [31]: 0.048 µM
ED50 [32]: 12.3 µM
ED50 [33]: 0.0344 µM
ED50 [34]: 4.79 µM
ED50 [35]: 1.19 µM
ED50 [36]: 0.187 µM
ED50 [37]: 0.431 µM
ED50 [38]: 4.27 µM
ED50 [39]: 0.000314 µM
ED50 [40]: 0.00886 µM
ED50 [41]: 0.0401 µM
ED50 [42]: 3.84 µM
ED50 [43]: 0.0233 µM
ED50 [44]: 0.0477 µM

Cc1ccc(C(=O)Nc2cccc(C(F)(F)F)c2)cc1Nc1nc(-c2cccnc2)nc2c1cnn2C
ED50 [1]: 16.5 µM
ED50 [2]: 0.0059 µM
ED50 [3]: 0.558 µM
ED50 [4]: 9.51 µM
ED50 [5]: 3.39 µM
ED50 [6]: 0.0206 µM
ED50 [7]: 3.43 µM
ED50 [8]: 0.11 µM
ED50 [9]: 8.9 µM
ED50 [10]: 0.641 µM
ED50 [11]: 0.0037 µM
ED50 [12]: 0.562 µM
ED50 [13]: 8.87 µM
ED50 (Filamin-A (Homo sapiens)): 7.88 µM
ED50 [14]: 4.02 µM
ED50 [15]: 0.0215 µM
ED50 [16]: 32000 µM
ED50 [17]: 0.0041 µM
ED50 [18]: 5.75 µM
ED50 [19]: 0.466 µM
ED50 [20]: 2.57 µM
ED50 [21]: 20500 µM
ED50 [22]: 0.027 µM
ED50 [23]: 0.0588 µM
ED50 [24]: 7.74 µM
ED50 [25]: 5.95 µM
ED50 (Homo sapiens): 3.66 µM
ED50 [26]: 13.2 µM
ED50 [27]: 1.23 µM
ED50 [28]: 3.31 µM
ED50 [29]: 7.62 µM
ED50 [30]: 0.0767 µM
ED50 [31]: 5.26 µM
ED50 [32]: 0.0167 µM
ED50 [33]: 95700 µM
ED50 [34]: 4.38 µM
ED50 [35]: 2.22 µM
ED50 [36]: 0.0219 µM
ED50 [37]: 0.0434 µM
ED50 [38]: 23.9 µM
ED50 [39]: 0.665 µM
ED50 [40]: 35.5 µM
ED50 [41]: 0.16 µM
ED50 [42]: 0.648 µM
ED50 [43]: 0.745 µM
ED50 [44]: 6.15 µM
